In US20250145594A1, “MODULATORS OF THE INTEGRATED STRESS PATHWAY” (Calico Life Sciences LLC, priority 2020, published 2025):
pEC50: −log10 of the molar value.

System: ATF4 luciferase reporter in HEK293T cells
Test: ATF4-Luc assay (in vitro model of VWMD)
Format: cell-based, human
Conditions: Homo sapiens, HEK-293T, 7 h, HEK293T cells carrying the ATF4 luciferase reporter, 1 μg/mL tunicamycin, One Glo luminescence
In short: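 Stable HEK293T line expressing firefly luciferase behind the human ATF4 5′-UTR, treated with 1 μg/mL tunicamycin plus compound for 7 hours. Luminescence read with One Glo; EC50 determined.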

Compound | pEC50
O=C(N[C@H]1CC[C@H](n2cc(OCCOC(F)(F)F)cn2)CC1)[C@H]1C[C@@H](O)c2ccccc2O1 [Compound 637, (2R,4R)-4-hydroxy-N-[(1r,4R)-4-{4-[2-(trifluoromethoxy)ethoxy]-1H-pyrazol-1-yl}cyclohexyl]-3,4-dihydro-2H-1-benzopyran-2-carboxamide] | 6.60 to 7.30
O=C(NC12CC(n3cc(OCCCC(F)(F)F)cn3)(C1)C2)[C@H]1C[C@@H](O)c2cc(Cl)ccc2O1 [Compound 517, (2R,4R)-6-chloro-4-hydroxy-N-{3-[4-(4,4,4-trifluorobutoxy)-1H-pyrazol-1-yl]bicyclo[1.1.1]pentan-1-yl}-3,4-dihydro-2H-1-benzopyran-2-carboxamide] | > 8.00
O=C(COc1ccc(Cl)c(F)c1)NC12CC(C(=O)NC34CC(C(F)(F)F)(C3)C4)(C1)C2 [Compound 353, 3-[2-(4-chloro-3-fluorophenoxy)acetamido]-N-[3-(trifluoromethyl)bicyclo[1.1.1]pentan-1-yl]bicyclo[1.1.1]pentane-1-carboxamide] | 6.60 to 7.30
O=C(NC12CC(n3cc(-c4ccc(C(F)(F)F)cn4)cn3)(C1)C2)[C@H]1C[C@H](O)c2cc(Cl)c(F)cc2O1 [Compound 478, (2R,4S)-6-chloro-7-fluoro-4-hydroxy-N-(3-{4-[5-(trifluoromethyl)pyridin-2-yl]-1H-pyrazol-1-yl}bicyclo[1.1.1]pentan-1-yl)-3,4-dihydro-2H-1-benzopyran-2-carboxamide] | > 8.00
O=C(NC12CC(n3cc(-c4ccc(C(F)(F)F)cn4)cn3)(C1)C2)[C@@H]1C[C@@H](O)c2cc(Cl)ccc2O1 [Compound 317, (2S,4R)-6-chloro-4-hydroxy-N-(3-{4-[5-(trifluoromethyl)pyridin-2-yl]-1H-pyrazol-1-yl}bicyclo[1.1.1]pentan-1-yl)-3,4-dihydro-2H-1-benzopyran-2-carboxamide] | 7.30 to 8.00
O=C(CO[C@H]1C[C@@H](OC(F)(F)F)C1)NC12CC(NC(=O)[C@H]3C[C@@H](O)c4cc(C(F)(F)F)c(F)cc4O3)(C1)C2 [Compound 644, (2R,4R)-7-fluoro-4-hydroxy-N-[3-(2-{[(1s,3S)-3-(trifluoromethoxy)cyclobutyl]oxy}acetamido)bicyclo[1.1.1]pentan-1-yl]-6-(trifluoromethyl)-3,4-dihydro-2H-1-benzopyran-2-carboxamide] | > 8.00
O=C(NC12CC(n3cc(N4CC(OC(F)(F)F)C4)cn3)(C1)C2)[C@H]1C[C@@H](O)c2cc(Cl)ccc2O1 [Compound 352, (2R,4R)-6-chloro-4-hydroxy-N-(3-{4-[3-(trifluoromethoxy)azetidin-1-yl]-1H-pyrazol-1-yl}bicyclo[1.1.1]pentan-1-yl)-3,4-dihydro-2H-1-benzopyran-2-carboxamide] | 7.30 to 8.00
COc1ccc2nn(C34CCC(NC(=O)[C@H]5C[C@@H](O)c6cc(Cl)ccc6O5)(C3)C4)cc2c1 [Compound 652, (2R,4R)-6-chloro-4-hydroxy-N-[4-(5-methoxy-2H-indazol-2-yl)bicyclo[2.1.1]hexan-1-yl]-3,4-dihydro-2H-1-benzopyran-2-carboxamide] | 7.30 to 8.00
C[C@@H](COC(F)(F)F)Oc1cnn(C23CC(NC(=O)[C@H]4C[C@@H](O)c5cc(C(F)(F)F)ccc5O4)(C2)C3)c1 [Compound 441, (2R,4R)-4-hydroxy-N-[3-(4-{[(2S)-1-(trifluoromethoxy)propan-2-yl]oxy}-1H-pyrazol-1-yl)bicyclo[1.1.1]pentan-1-yl]-6-(trifluoromethyl)-3,4-dihydro-2H-1-benzopyran-2-carboxamide] | 7.30 to 8.00
O=C(NC12CC(n3cc(CCCOC(F)(F)F)cn3)(C1)C2)[C@H]1C[C@@H](O)c2cc(Cl)c(F)cc2O1 [Compound 514, (2R,4R)-6-chloro-7-fluoro-4-hydroxy-N-(3-{4-[3-(trifluoromethoxy)propyl]-1H-pyrazol-1-yl}bicyclo[1.1.1]pentan-1-yl)-3,4-dihydro-2H-1-benzopyran-2-carboxamide] | > 8.00
